Results reported in a melting point compilation (Tetko et al.; mined from patent text by program, amines drawn as free bases though some values may be those of a salt).

Row | Compound | melting point
1 | COc1cc2c(cc1Nc1ncc(Cl)c(Nc3ccccc3S(=O)(=O)N(C)C)n1)CCN(CCS(C)(=O)=O)CC2 | 84 to 101 °C
2 | O=C(O)c1ccccc1Nc1ccc(Cl)cc1[N+](=O)[O-] | 235 to 247 °C
3 | CC(=O)N1CCC(=O)C(C2c3ccccc3CCc3ccccc32)C1 (configuration not stated) | 107 to 109 °C
4 | Cc1nn(-c2ccc(Cl)cc2F)c(=O)[nH]1 | 115 °C
5 | O=C(O)c1ccc(-c2cc3cccnc3c(-c3cccc4nonc34)n2)cc1 | > 300 °C
6 | CN(C)C(=O)c1csc(N(C)CC#CI)n1 | 148 to 150 °C
7 | CCOC(=O)c1nc2ccc([N+](=O)[O-])cc2c(O)c1C(=O)OCC | 264 °C
8 | N#CCNC(=O)C(Cl)c1ccccc1 (configuration not stated) | 73 to 74 °C
9 | NS(=O)(=O)c1ccc(-c2cn(-c3nc(-c4ccc(Cl)cc4)cc(C(F)(F)F)n3)cn2)cc1 | 324 °C
10 | COc1cccc(OC)c1-c1cc(C(=O)NC2(C(=O)O)C3CC4CC(C3)CC2C4)nn1-c1cccc2ncccc12 (configuration not stated) | > 260 °C
11 | COc1cc2nc(N)nc(-c3ccc(Br)cc3)c2cc1OC | 270 to 272 °C
12 | CNC(=O)N(O)CCOc1ccc2c(c1)CCN(CCCc1ccccc1)C2=O | 138 to 139 °C
13 | Cc1ccc(S(=O)(=O)n2ccc3cc(F)ccc32)cc1 | 106 to 108 °C
14 | CCCCCCCCc1ncc(-c2ccc(OC(=O)[C@H]3CCCO3)cc2)cn1 | 68 °C
15 | Oc1ccc(CCCCn2ccnc2)cc1 | 124 to 125 °C
16 | N#CC1=NC(Cl)(Cl)N=C1Cl | 114 to 115 °C
17 | COc1cc(C)nc2nc(S(=O)(=O)Nc3c(Cl)ccc(C)c3Cl)nn12 | 239 to 242 °C
18 | N#Cc1cnc2c(sc3c([N+](=O)[O-])cccc32)c1Cl | 258 to 260 °C
19 | CC1(C)CCC(C)(C)c2cc(C(=O)C(=O)c3ccc(C(=O)O)cc3)ccc21 | 148 to 151 °C
20 | CC(C)C1Cc2cc(OCC(=O)O)c(Cl)c(Cl)c2C1=O (configuration not stated) | 161 to 164 °C
21 | NS(=O)(=O)c1ccc(N2CCN(CCC3=CCCc4ccccc43)CC2)cc1 | 222 °C
22 | CC(C)(C)OC(=O)Nc1ccc(-c2ccccc2F)cc1NC(=O)CC(=O)c1cc(C#N)ccc1F | 170 °C
23 | CCOC(=O)/C(=N\OCCN)c1csc(NC(c2ccccc2)(c2ccccc2)c2ccccc2)n1 | 126 to 144 °C
24 | N#Cc1c(Cl)ccc([N+](=O)[O-])c1N | 181 to 184 °C
25 | O=C(CBr)C(O)(c1ccccc1)C1CCC1 (configuration not stated) | 79 to 80 °C
26 | O=C(O)CN1C(=O)C(=Cc2ccncc2)SC1=S | 263 to 266 °C

Row | Compound | melting point
27 | CCOC(=O)c1ccc(CCC(=O)O)cc1 | 108 to 110 °C
28 | CC(C)c1cccc2c1CC(C(=O)O)SCC2=O (configuration not stated) | 157 to 158 °C
29 | CN(C)S(=O)(=O)C(Br)(Br)Sc1ccccc1 | 128 to 129 °C
30 | CC=C(NC(=O)C1CC1(Cl)Cl)C(=O)O (configuration not stated) | 188 to 190 °C
31 | CC(C)(C)Oc1ccc(C(=O)N[C@H]2CC[C@H](CCN3CCN(c4nccc5c4CCO5)CC3)CC2)cc1 | 200 °C
32 | FC(F)(F)c1cc(-c2ccc(Cl)c(Cl)c2)nc2ccnn12 | 130 to 131 °C
33 | CCOC(=O)C(C)=NNc1ccc(Cl)c(F)c1 | 161 to 163 °C
34 | CCc1ccc2c(c1)C=Cc1cc(C)ccc1C2c1cn(-c2ccnc(N(C)CC(=O)O)n2)c(=O)[nH]c1=S (configuration not stated) | 187 °C
35 | CC(=O)NC1CCCn2c1c(C)c1ccccc12 (configuration not stated) | 158 to 160 °C
36 | Cc1cc(N2N=CCNC2=O)cc(Cl)c1C(C#N)c1cnc(Cl)s1 (configuration not stated) | 238 to 239 °C
37 | Cc1cc2c(cc1[N+](=O)[O-])OCO2 | 83 to 84 °C
38 | COC(=O)c1ccc(OCc2ccc(Cl)cc2)cc1OCc1ccccc1 | 99 to 101 °C
39 | CCOC(=O)C(C(=O)OCC)=C1NC(=O)N(Cc2ccccc2)C1=O | 149 to 151 °C
40 | C=CCOc1ccc2c(c1CC=C)NC(=O)CC2 | 119 to 121 °C
41 | Cc1nn(C)c(N)c1C#N | 193 to 195 °C
42 | CCC1(CCCCCl)C(=O)Nc2ccccc21 (configuration not stated) | 104 to 105 °C
43 | CCCCCCCCCCCCCCc1ccc(OCC(CO)OCc2ccccc2)c(CCCCCC)c1 (configuration not stated) | 32 to 33 °C
44 | COc1c([N+](=O)[O-])cc(C=O)c(Cl)c1O | 130 °C
45 | CC(C)(CO)c1ccc(C(=O)Nc2cn3cc(-c4cn[nH]c4)ccc3n2)cc1 | 293 to 296 °C
46 | CCC(C)(C)c1ccc(OCCCC(=O)Nc2ccc(Cl)c(NC(=O)CC(=O)C(C)(C)Sc3ccccc3)c2)c(C(C)(C)CC)c1 | 144 to 145 °C
47 | Nc1ncc(-c2cccc3ccccc23)c(N)n1 | 171 to 173 °C
48 | N=C(NO)c1ccc(-c2cccc(-c3nc4cc(C(=N)NO)ccc4[nH]3)c2)cc1 | 317 to 319 °C
49 | CC(=O)N1CCn2c3c(c4cccc(c42)C1)CCCCCC3 | 41 to 44 °C
50 | CCCCCCCCCCCCCCCc1cc(OCC(COC(=O)NCCCCCn2cnnn2)Oc2cc(C)on2)no1 (racemic) | 82 to 84 °C
51 | NCC1COc2cc(F)cc(-c3ccccc3F)c2N1 (configuration not stated) | 77 °C
52 | Cn1c2ccc([N+](=O)[O-])cc2c2c3c(ccc21)C(=O)OC3=O | > 300 °C

Row | Compound | melting point
53 | Cc1[nH]c(=S)n(Nc2ccccc2)c1-c1ccccc1 | 224 to 226 °C
54 | CN(C)C(=O)C(=O)c1c[nH]c2ccc(Br)cc12 | 189 to 190 °C
55 | Cc1onc(-c2ccccc2)c1-c1csc(NC(=O)C(N)=O)n1 | 204 to 205 °C
56 | CCCCc1ccc(-c2ccccc2)c(C(=O)O)c1 | 74 to 76 °C
57 | CCCCS(=O)C1CC(=O)N1CC(=O)CCc1ccccc1 (configuration not stated) | 145 to 146 °C
58 | COC(=O)C(Oc1nc(OC)cc(OC)n1)C(C)(OCc1ccccc1)c1ccccc1 (configuration not stated) | 115 to 117 °C
59 | Cc1oc(=O)c(Nc2ccccc2)nc1Cl | 133 to 137 °C
60 | C[C@H](C(=O)OCc1ccccc1)n1ccn(-c2ccc(OCC(F)(F)C(F)F)cc2)c1=O | 75 to 76 °C
61 | COc1ccc(C2CCCN2S(=O)(=O)c2ccc(C)cc2)cc1 (racemic) | 122 °C
62 | Nc1cccc(Cn2c(-c3ccccc3)ccc2-c2ccccc2)n1 | 143 to 144 °C
63 | CN1CCC(N2C(=O)c3ccccc3Oc3ccccc32)CC1 | 173 to 174 °C
64 | CS(=O)(=O)c1ccc(-n2nc(C(N)=O)cc2-c2ccc(-c3ccco3)cc2)cc1F | 239 to 240 °C
65 | Cc1ccc(S(=O)(=O)OCC2CC(OS(=O)(=O)c3ccc(C)cc3)CN2S(=O)(=O)c2ccc(C)cc2)cc1 (configuration not stated) | 134 to 135 °C
66 | CNC(=O)Nc1snc(N(C)C)c1C(N)=O | 221 °C
67 | COc1cccc(-c2csc(N3CCN(C(=O)Nc4onc(C)c4C)CC3)n2)c1 | 158 to 159 °C
68 | COc1ccc(Cn2c(=O)c3c(c4ccccc42)OC(C)(C)[C@@H](Br)[C@@H]3O)cc1 (relative stereo) | 146 to 147 °C
69 | CCOC(=O)c1c(C)c(C(=O)c2ccc(SC)n2C)n2c1C(C(=O)OCC)CC2 (configuration not stated) | 142 to 143 °C
70 | CCCCCCOc1ccc2c(COC)c(OCCCCCC)ccc2c1COC | 103 to 104 °C
71 | CNC(=O)N(O)C(C)c1ccc(OCc2ccccc2)cc1 (configuration not stated) | 125 to 128 °C
72 | CC1(C)C(=N)N(CC(N)=O)c2ccccc21 | 167 to 173 °C
73 | O=C(O)Cn1c(=S)c2ccccc2n(Cc2ccc(Cl)c(Cl)c2)c1=O | 237 to 238 °C
74 | Cc1nc(-n2ccc3cc(O)ccc3c2=O)sc1C(=O)NCc1ccccc1 | 225 to 228 °C
75 | N#Cc1ccc(Oc2cc(F)cc(F)c2)c([N+](=O)[O-])c1 | 132 to 136 °C
76 | CC(C)(C)OC(=O)NCCc1c[nH]c2ccc(C#N)cc12 | 129 to 132 °C
77 | FC(F)(F)c1ccc(/C=C/c2cc(Cl)cc(Cl)c2)cc1 | 98 to 100 °C
78 | COC(=O)CC(NC(=O)CC1CCCCC1)C(C)=O (configuration not stated) | 75 to 76 °C

Row | Compound | melting point
79 | Cn1c(=O)[nH]c(=O)c2c1ncn2Cc1noc(C2CCCCC2)n1 | 245 to 248 °C
80 | CC(C)OC(=O)Nc1ccc(Cl)c(C(=O)OC(C)C)c1 | 108 to 109 °C
81 | Cc1cc(COc2ccc(S(=O)(=O)NC[C@@H](C(=O)NO)N3CCNCC3)cc2)c2ccccc2n1 | 225 °C
82 | CC(C)c1cc(C(C)C)c(C(O)C(=O)c2ccc(C(C)C)c(OS(N)(=O)=O)c2C(C)C)c(C(C)C)c1 (configuration not stated) | 96 to 101 °C
83 | COCOc1c(OC)cc(C(=O)C(=O)O)c2cccc(Cc3ccccc3)c12 | 75 to 79 °C
84 | COc1cc2c(cc1OC)CCCC(C(=O)N1CCN(Cc3cc(OC)c(OC)c(OC)c3)C(C(=O)O)C1)=C2 (configuration not stated) | 142 to 144 °C
85 | CCOC(=O)C1C=Nc2c(ccc3cc(C(=O)N(C)Cc4ccc(F)cc4)cnc23)C1=O (configuration not stated) | 206 to 207 °C
86 | c1cc(-n2ccnc2)cc(-n2cnc3cc(-c4ccoc4)cnc32)c1 | 202 to 204 °C
87 | CC(C)(NSc1nc2ccccc2s1)c1ccccc1 | 88 to 90 °C
88 | CN1C(=O)C(C#N)(c2ccc(OCC3CO3)cc2)Sc2ccccc21 (configuration not stated) | 136 to 139 °C
89 | Cc1ccc(-c2[nH]c(C)nc2C(=O)Nc2nccs2)cc1 | 275 to 276 °C
90 | COc1cc(Nc2nccc(-c3cncs3)n2)cc(OC)c1OC | 171 °C
91 | CCCc1cc(-c2noc3cc(O)ccc23)ccc1O | 227 to 229 °C
92 | COC(=O)Cc1cc(C(=O)c2ccccc2Cl)c(N)s1 | 102 to 105 °C
93 | CC(=O)Nc1ccc(S(=O)(=O)Nc2cccc3[nH]ccc23)cc1 | > 260 °C
94 | O=c1[nH]c2cc(C(F)(F)F)ccc2n1CCN1CCN(C(c2ccccc2)c2ccccc2)CC1 | 164 °C
95 | Nc1ccnc(SCc2ccccn2)n1 | 133 to 134 °C
96 | COC(=O)c1cccc2nc(SCCCCCCCCC(=O)Nc3c(SC)cc(C)nc3SC)oc12 | 126 to 128 °C
97 | Cc1c(-c2ccccc2)n(-c2ccccc2Cl)c(-c2ccccc2)cc1=O | 228 to 231 °C
98 | CCOC(=O)C1=C(Cl)C(OCC)=NS1(=O)=O | 134 to 136 °C
99 | S=C1CN=C(c2ccc(Cl)cc2)c2cc(I)ccc2N1 | 260 to 262 °C
100 | COc1ccc(-c2cc3ccc(OC)cc3c(=S)[nH]2)cc1 | 188 to 190 °C
101 | N#Cc1ccc(-c2ccc(-c3ccc(C#N)cn3)o2)nc1 | 311 to 312 °C
102 | COc1ccc2occ(CCN3CCN(c4cccc5cccnc45)CC3)c2c1 | 78 °C
